Earlier results, collected in PubChem BioAssay AID1259409 (Chemical Carcinogenesis Research Information System (CCRIS), 2018).

Tested on: rodent chemically induced tumor inhibition, incidence and multiplicity
Assay: CCRIS tumor inhibitor studies
Conditions: Dose [Inhibitor]: 0

SMILES: CS(=O)(=O)Nc1ccc([N+](=O)[O-])cc1OC1CCCCC1
- tumour outcome (control, treated, inhibition, significance) (Carcinogen: 4-METHYLNITROSAMINO)-1-(3-PYRIDYL)-1-BUTANONE, 64091-91-4, 7 MMOL/KG BW/D IN DIET FOR DURATION OF STUDY BEGINNING 2 WK PRIOR TO CARCINOGEN TREATMENT (STUDY DURATION: 25 WK), Route [Inhibitor]: ORAL, Species: MOUSE, Strain/Sex: STRAIN-A/FEMALE, Target Tissue: Type of Lesion: LUNG: TUMOR, Dose [Carcinogen]: 2.2 MMOL/KG BW (TOTAL DOSE) ADMINISTERED IN DRINKING WATER FOR 7 WK, Promoter: NONE USED): 29/29 (100%), 25/25 (100%), 0%, not significant

SMILES: COc1cc(CC(C)C(C)Cc2ccc(O)c(OC)c2)ccc1O (centres undefined)
- tumour outcome (control, treated, inhibition, significance) (Carcinogen: 2,2'-DIHYDROXY-DI-N-PROPYLNITROSAMINE, 53609-64-6, N-ETHYL-N-HYDROXYETHYLNITROSAMINE, 13147-25-6, 3,2'-DIMETHYL-1,4-, Carcinogen: 2,2'-DIHYDROXY-DI-N-PROPYLNITROSAMINE, 53609-64-6, N-ETHYL-N-HYDROXYETHYLNITROSAMINE, 13147-25-6, 3,2'-DIMETHYL-1,4-, 1% IN DIET FOR 4 WK BEGINNING 1 D PRIOR TO FIRST CARCINOGEN DOSE (STUDY DURATION: 36 WK), Route [Inhibitor]: ORAL, Species: RAT, Strain/Sex: F344/MALE, Target Tissue: Type of Lesion: KIDNEY: ADENOMA, Dose [Carcinogen]: 1000 MG/KG BW DHPN TWICE, 1500 MG/KG EHEN TWICE, 75 MG/KG BW DMAB 3 TIMES, SEQUENTIALLY OVER 3 WK, Promoter: NONE USED): 6/10 (60%), 5/12 (42%), 30%, not significant
- tumour outcome (control, treated, inhibition, significance) (Carcinogen: 2,2'-DIHYDROXY-DI-N-PROPYLNITROSAMINE, 53609-64-6, N-ETHYL-N-HYDROXYETHYLNITROSAMINE, 13147-25-6, 3,2'-DIMETHYL-1,4-, Carcinogen: 2,2'-DIHYDROXY-DI-N-PROPYLNITROSAMINE, 53609-64-6, N-ETHYL-N-HYDROXYETHYLNITROSAMINE, 13147-25-6, 3,2'-DIMETHYL-1,4-, 1% IN DIET FOR 4 WK BEGINNING 1 D PRIOR TO FIRST CARCINOGEN DOSE (STUDY DURATION: 36 WK), Route [Inhibitor]: ORAL, Species: RAT, Strain/Sex: F344/MALE, Target Tissue: Type of Lesion: LUNG: ADENOMA, Dose [Carcinogen]: 1000 MG/KG BW DHPN TWICE, 1500 MG/KG EHEN TWICE, 75 MG/KG BW DMAB 3 TIMES, SEQUENTIALLY OVER 3 WK, Promoter: NONE USED): 5/10 (50%), 6/12 (50%), 0%, not significant

SMILES: NCCS(=O)(=O)O
- tumour outcome (control, treated, inhibition, significance) (Carcinogen: AZOXYMETHANE, 25843-45-2, 600 PPM IN DIET BEGINNING 2 WK PRIOR TO CARCINOGEN TREATMENT AND CONTINUING FOR DURATION OF STUDY (STUDY DURATION: 56, Route [Inhibitor]: ORAL, Species: RAT, Strain/Sex: F344/MALE, Target Tissue: Type of Lesion: COLON: INVASIVE ADENOCARCINOMA, Dose [Carcinogen]: 15 MG/KG 1/WK FOR 2 WK, Promoter: NONE USED): 34%, 16%, 53%, not significant
- tumour outcome (control, treated, inhibition, significance) (Carcinogen: AZOXYMETHANE, 25843-45-2, 600 PPM IN DIET BEGINNING 2 WK PRIOR TO CARCINOGEN TREATMENT AND CONTINUING FOR DURATION OF STUDY (STUDY DURATION: 56, Route [Inhibitor]: ORAL, Species: RAT, Strain/Sex: F344/MALE, Target Tissue: Type of Lesion: COLON: NONINVASIVE ADENOCARCINOMA, Dose [Carcinogen]: 15 MG/KG 1/WK FOR 2 WK, Promoter: NONE USED): 53%, 61%, -15%, not significant
- tumour outcome (control, treated, inhibition, significance) (Carcinogen: AZOXYMETHANE, 25843-45-2, 1200 PPM IN DIET BEGINNING 2 WK PRIOR TO CARCINOGEN TREATMENT AND CONTINUING FOR DURATION OF STUDY (STUDY DURATION: 5, Route [Inhibitor]: ORAL, Species: RAT, Strain/Sex: F344/MALE, Target Tissue: Type of Lesion: COLON: INVASIVE ADENOCARCINOMA, Dose [Carcinogen]: 15 MG/KG 1/WK FOR 2 WK, Promoter: NONE USED): 34%, 17%, 50%, not significant
- tumour outcome (control, treated, inhibition, significance) (Carcinogen: AZOXYMETHANE, 25843-45-2, 1200 PPM IN DIET BEGINNING 2 WK PRIOR TO CARCINOGEN TREATMENT AND CONTINUING FOR DURATION OF STUDY (STUDY DURATION: 5, Route [Inhibitor]: ORAL, Species: RAT, Strain/Sex: F344/MALE, Target Tissue: Type of Lesion: COLON: NONINVASIVE ADENOCARCINOMA, Dose [Carcinogen]: 15 MG/KG 1/WK FOR 2 WK, Promoter: NONE USED): 53%, 47%, 11%, not significant
- tumour outcome (control, treated, inhibition, significance) (Carcinogen: DIETHYLNITROSAMINE, 55-18-5, 2000 PPM IN DIET FOR 3 WK DURING INITIATION PHASE (STUDY DURATION: 24 WK), Route [Inhibitor]: ORAL, Species: RAT, Strain/Sex: F344/MALE, Target Tissue: Type of Lesion: LIVER: HEPATOCELLULAR ADENOMA, Dose [Carcinogen]: 100 MG/KG BW 1/WK FOR 3 WK, Promoter: PHENOBARBITAL, 50-06-6): 19/20 (95%), 12/19 (63%), 34%, p<0.02
- tumour outcome (control, treated, inhibition, significance) (Carcinogen: DIETHYLNITROSAMINE, 55-18-5, 2000 PPM IN DIET FOR 3 WK DURING INITIATION PHASE (STUDY DURATION: 24 WK), Route [Inhibitor]: ORAL, Species: RAT, Strain/Sex: F344/MALE, Target Tissue: Type of Lesion: LIVER: HEPATOCELLULAR CARCINOMA, Dose [Carcinogen]: 100 MG/KG BW 1/WK FOR 3 WK, Promoter: PHENOBARBITAL, 50-06-6): 14/20 (70%), 13/19 (68%), 3%, not significant
- tumour outcome (control, treated, inhibition, significance) (Carcinogen: DIETHYLNITROSAMINE, 55-18-5, 2000 PPM IN DIET FOR 20 WK BEGINNING POST CARCINOGEN TREATMENT (STUDY DURATION: 24 WK), Route [Inhibitor]: ORAL, Species: RAT, Strain/Sex: F344/MALE, Target Tissue: Type of Lesion: LIVER: HEPATOCELLULAR ADENOMA, Dose [Carcinogen]: 100 MG/KG BW 1/WK FOR 3 WK, Promoter: NONE USED): 3/24 (13%), 4/18 (22%), -69%, not significant
- tumour outcome (control, treated, inhibition, significance) (Carcinogen: DIETHYLNITROSAMINE, 55-18-5, 2000 PPM IN DIET FOR 20 WK BEGINNING POST CARCINOGEN TREATMENT (STUDY DURATION: 24 WK), Route [Inhibitor]: ORAL, Species: RAT, Strain/Sex: F344/MALE, Target Tissue: Type of Lesion: LIVER: HEPATOCELLULAR ADENOMA, Dose [Carcinogen]: 100 MG/KG BW 1/WK FOR 3 WK, Promoter: PHENOBARBITAL, 50-06-6): 19/20 (95%), 7/21 (33%), 65%, p<0.0001
- tumour outcome (control, treated, inhibition, significance) (Carcinogen: DIETHYLNITROSAMINE, 55-18-5, 2000 PPM IN DIET FOR 20 WK BEGINNING POST CARCINOGEN TREATMENT (STUDY DURATION: 24 WK), Route [Inhibitor]: ORAL, Species: RAT, Strain/Sex: F344/MALE, Target Tissue: Type of Lesion: LIVER: HEPATOCELLULAR CARCINOMA, Dose [Carcinogen]: 100 MG/KG BW 1/WK FOR 3 WK, Promoter: NONE USED): 7/24 (29%), 4/18 (22%), 24%, not significant
- tumour outcome (control, treated, inhibition, significance) (Carcinogen: DIETHYLNITROSAMINE, 55-18-5, 2000 PPM IN DIET FOR 20 WK BEGINNING POST CARCINOGEN TREATMENT (STUDY DURATION: 24 WK), Route [Inhibitor]: ORAL, Species: RAT, Strain/Sex: F344/MALE, Target Tissue: Type of Lesion: LIVER: HEPATOCELLULAR CARCINOMA, Dose [Carcinogen]: 100 MG/KG BW 1/WK FOR 3 WK, Promoter: PHENOBARBITAL, 50-06-6): 14/20 (70%), 13/21 (62%), 11%, not significant

SMILES: CC(O)CCC(=O)c1cccnc1 (centres undefined)
- tumour outcome (control, treated, inhibition, significance) (Carcinogen: 4-(METHYLNITROSAMINO)-1-(3-PYRIDYL)-1-BUTANONE, 64091-91-4, 25 UMOL IN 0.1 ML CORN OIL ONCE 2 HR PRIOR TO CARCINOGEN DOSE (STUDY DURATION: 16 WK), Route [Inhibitor]: GAVAGE, Species: MOUSE, Strain/Sex: STRAIN-A/FEMALE, Target Tissue: Type of Lesion: LUNG: ADENOMA, Dose [Carcinogen]: 10 UMOL IN 0.1 ML SALINE ONCE, Promoter: NONE USED): 100%, 100%, 0%, not significant
